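Each compound was tested at five concentrations against cells in 96-well plates for 48 hours. Abbreviation: GI50, concentration required for 50% inhibition of growth. TGI: concentration producing complete growth inhibition.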
Assays:
Test in all cases: NCI-60 cell line screen, 48 h
NCI-H522 lung = system: NCI-H522 lung
HOP-62 NSCLC = system: HOP-62 NSCLC
786-0 renal = system: 786-0 renal
HCT-116 colon = system: HCT-116 colon
SK-MEL-28 melanoma = system: SK-MEL-28 melanoma
OVCAR-4 ovarian = system: OVCAR-4 ovarian
SNB-19 CNS = system: SNB-19 CNS
HCT-15 colon = system: HCT-15 colon
IGROV1 ovarian = system: IGROV1 ovarian
MOLT-4 leukemia = system: MOLT-4 leukemia
TK-10 renal = system: TK-10 renal
OVCAR-3 ovarian = system: OVCAR-3 ovarian
EKVX NSCLC = system: EKVX NSCLC
HOP-92 NSCLC = system: HOP-92 NSCLC
A549 NSCLC = system: A549 NSCLC
U251 CNS = system: U251 CNS
MDA-MB-435 = system: MDA-MB-435
SK-MEL-5 melanoma = system: SK-MEL-5 melanoma
HL-60(TB) leukemia = system: HL-60(TB) leukemia
CAKI-1 renal = system: CAKI-1 renal
MCF7 breast = system: MCF7 breast
UACC-62 melanoma = system: UACC-62 melanoma
A498 renal = system: A498 renal
PC-3 prostate = system: PC-3 prostate
T-47D breast = system: T-47D breast
HT29 colon = system: HT29 colon
BT-549 breast = system: BT-549 breast
NCI-H226 lung = system: NCI-H226 lung
RXF 393 renal = system: RXF 393 renal
SW-620 colon = system: SW-620 colon
UO-31 renal = system: UO-31 renal
K-562 leukemia = system: K-562 leukemia
OVCAR-8 ovarian = system: OVCAR-8 ovarian
NCI-H23 lung = system: NCI-H23 lung
SN12C renal = system: SN12C renal
SNB-75 CNS = system: SNB-75 CNS
SK-OV-3 ovarian = system: SK-OV-3 ovarian
LOX IMVI melanoma = system: LOX IMVI melanoma
MALME-3M melanoma = system: MALME-3M melanoma
M14 melanoma = system: M14 melanoma
CCRF-CEM leukemia = system: CCRF-CEM leukemia
SF-539 CNS = system: SF-539 CNS
MDA-MB-231 breast = system: MDA-MB-231 breast
SR leukemia = system: SR leukemia
UACC-257 melanoma = system: UACC-257 melanoma
SK-MEL-2 melanoma = system: SK-MEL-2 melanoma
NCI/ADR-RES ovarian = system: NCI/ADR-RES ovarian
KM12 colon = system: KM12 colon
SF-295 CNS = system: SF-295 CNS
HCC-2998 colon = system: HCC-2998 colon
HS 578T breast = system: HS 578T breast
NCI-H460 lung = system: NCI-H460 lung
SF-268 CNS = system: SF-268 CNS
ACHN renal = system: ACHN renal
RPMI-8226 leukemia = system: RPMI-8226 leukemia
COLO 205 colon = system: COLO 205 colon
DU-145 prostate = system: DU-145 prostate

In the case of `O=C1C=CC2(NN=C(c3ccccc3)N2c2ccccc2)c2cccc(O)c21` (centres undefined), the GI50 (NCI-H522 lung) was 1.21 µM, the TGI (NCI-H522 lung) was 3.4 µM and the GI50 (HOP-62 NSCLC) was 0.693 µM. For the same compound, the TGI (HOP-62 NSCLC) was 2.22 µM, the GI50 (786-0 renal) was 6.13 µM and the TGI (786-0 renal) was 43 µM. For the same compound, the GI50 (HCT-116 colon) was 1.38 µM, the TGI (HCT-116 colon) was 5.26 µM and the GI50 (SK-MEL-28 melanoma) was 1.99 µM. It also gave a TGI (SK-MEL-28 melanoma) of 4.38 µM, a GI50 (OVCAR-4 ovarian) of 0.698 µM and a TGI (OVCAR-4 ovarian) of 3.21 µM. The GI50 (SNB-19 CNS) was 1.59 µM, the TGI (SNB-19 CNS) was 10.8 µM and the GI50 (HCT-15 colon) was 0.472 µM. It also gave a TGI (HCT-15 colon) of 2.37 µM, a GI50 (IGROV1 ovarian) of 3.19 µM and a TGI (IGROV1 ovarian) of 17.1 µM. It also gave a GI50 (MOLT-4 leukemia) of 6.81 µM, a TGI (MOLT-4 leukemia) of over 100 µM and a GI50 (TK-10 renal) of 5.46 µM. The TGI (TK-10 renal) was 46 µM, the GI50 (OVCAR-3 ovarian) was 1.08 µM and the TGI (OVCAR-3 ovarian) was 3.7 µM. The GI50 (EKVX NSCLC) was 1.41 µM, the TGI (EKVX NSCLC) was 14.5 µM and the GI50 (HOP-92 NSCLC) was 22.8 µM. For the same compound, the TGI (HOP-92 NSCLC) was 54.2 µM, the GI50 (A549 NSCLC) was 1.84 µM and the TGI (A549 NSCLC) was 5 µM. For the same compound, the GI50 (U251 CNS) was 0.587 µM, the TGI (U251 CNS) was 20.2 µM and the GI50 (MDA-MB-435) was 0.185 µM. For the same compound, the TGI (MDA-MB-435) was 0.336 µM, the GI50 (SK-MEL-5 melanoma) was 0.272 µM and the TGI (SK-MEL-5 melanoma) was 0.706 µM. It also gave a GI50 (HL-60(TB) leukemia) of 2.77 µM, a TGI (HL-60(TB) leukemia) of 8.03 µM and a GI50 (CAKI-1 renal) of 5.71 µM. The TGI (CAKI-1 renal) was 50.3 µM, the GI50 (MCF7 breast) was 1.5 µM and the TGI (MCF7 breast) was 3.83 µM. It also gave a GI50 (UACC-62 melanoma) of 1.05 µM, a TGI (UACC-62 melanoma) of 2.26 µM and a GI50 (A498 renal) of 5.52 µM. For the same compound, the TGI (A498 renal) was 19.6 µM, the GI50 (PC-3 prostate) was 3.19 µM and the TGI (PC-3 prostate) was over 100 µM. The GI50 (T-47D breast) was 4.88 µM, the TGI (T-47D breast) was 37.7 µM and the GI50 (HT29 colon) was 2.53 µM. The TGI (HT29 colon) was 6.21 µM, the GI50 (BT-549 breast) was 1.13 µM and the TGI (BT-549 breast) was 2.69 µM. It also gave a GI50 (NCI-H226 lung) of 1.83 µM, a TGI (NCI-H226 lung) of 4.53 µM and a GI50 (RXF 393 renal) of 7.36 µM. For the same compound, the TGI (RXF 393 renal) was 25 µM, the GI50 (SW-620 colon) was 1.67 µM and the TGI (SW-620 colon) was 3.64 µM. For the same compound, the GI50 (UO-31 renal) was 1.46 µM, the TGI (UO-31 renal) was 7.67 µM and the GI50 (K-562 leukemia) was 1.6 µM. The TGI (K-562 leukemia) was 21 µM, the GI50 (OVCAR-8 ovarian) was 2.4 µM and the TGI (OVCAR-8 ovarian) was over 100 µM. It also gave a GI50 (NCI-H23 lung) of 0.46 µM, a TGI (NCI-H23 lung) of 2.18 µM and a GI50 (SN12C renal) of 1.47 µM. It also gave a TGI (SN12C renal) of 2.84 µM, a GI50 (SNB-75 CNS) of 1.82 µM and a TGI (SNB-75 CNS) of 3.44 µM. It also gave a GI50 (SK-OV-3 ovarian) of 11.8 µM, a TGI (SK-OV-3 ovarian) of 98 µM and a GI50 (LOX IMVI melanoma) of 0.275 µM. It also gave a TGI (LOX IMVI melanoma) of 1.28 µM, a GI50 (MALME-3M melanoma) of 1.28 µM and a TGI (MALME-3M melanoma) of 2.58 µM. For the same compound, the GI50 (M14 melanoma) was 1.3 µM, the TGI (M14 melanoma) was 2.6 µM and the GI50 (CCRF-CEM leukemia) was 4.83 µM. It also gave a TGI (CCRF-CEM leukemia) of over 100 µM, a GI50 (SF-539 CNS) of 1.26 µM and a TGI (SF-539 CNS) of 2.79 µM. For the same compound, the GI50 (MDA-MB-231 breast) was 2.37 µM, the TGI (MDA-MB-231 breast) was 33.9 µM and the GI50 (SR leukemia) was 4.38 µM. For the same compound, the TGI (SR leukemia) was 76.9 µM, the GI50 (UACC-257 melanoma) was 1.47 µM and the TGI (UACC-257 melanoma) was 2.93 µM. For the same compound, the GI50 (SK-MEL-2 melanoma) was 4.6 µM, the TGI (SK-MEL-2 melanoma) was 21.5 µM and the GI50 (NCI/ADR-RES ovarian) was 1.62 µM. For the same compound, the TGI (NCI/ADR-RES ovarian) was 30.9 µM, the GI50 (KM12 colon) was 2.65 µM and the TGI (KM12 colon) was 18 µM. It also gave a GI50 (SF-295 CNS) of 1.34 µM, a TGI (SF-295 CNS) of 3.18 µM and a GI50 (HCC-2998 colon) of 3.83 µM. It also gave a TGI (HCC-2998 colon) of 13 µM, a GI50 (HS 578T breast) of 2.86 µM and a TGI (HS 578T breast) of 7.63 µM. It also gave a GI50 (NCI-H460 lung) of 2.56 µM, a TGI (NCI-H460 lung) of 10.2 µM and a GI50 (SF-268 CNS) of 1.84 µM. For the same compound, the TGI (SF-268 CNS) was 14.3 µM, the GI50 (ACHN renal) was 3.11 µM and the TGI (ACHN renal) was 21.5 µM. For the same compound, the GI50 (RPMI-8226 leukemia) was 3.52 µM, the TGI (RPMI-8226 leukemia) was over 100 µM and the GI50 (COLO 205 colon) was 1.89 µM. For the same compound, the TGI (COLO 205 colon) was 3.83 µM, the GI50 (DU-145 prostate) was 1.27 µM and the TGI (DU-145 prostate) was 2.56 µM.

From PubChem BioAssay (NCI)
